# Measurements published in ChEMBL document CHEMBL1909046, “DrugMatrix in vitro pharmacology data”.
# pIC50, pKi: −log10 of the molar value.
# Columns and labels:
# [1] = molecular target: T1, Type-2 angiotensin II receptor (Homo sapiens, UniProt P50052); assay type: cell-based; details: cho-k1; further: in other assays of this panel Not Active means under 50% inhibition at 10 µM
# T1 sequence (P50052 whole entry): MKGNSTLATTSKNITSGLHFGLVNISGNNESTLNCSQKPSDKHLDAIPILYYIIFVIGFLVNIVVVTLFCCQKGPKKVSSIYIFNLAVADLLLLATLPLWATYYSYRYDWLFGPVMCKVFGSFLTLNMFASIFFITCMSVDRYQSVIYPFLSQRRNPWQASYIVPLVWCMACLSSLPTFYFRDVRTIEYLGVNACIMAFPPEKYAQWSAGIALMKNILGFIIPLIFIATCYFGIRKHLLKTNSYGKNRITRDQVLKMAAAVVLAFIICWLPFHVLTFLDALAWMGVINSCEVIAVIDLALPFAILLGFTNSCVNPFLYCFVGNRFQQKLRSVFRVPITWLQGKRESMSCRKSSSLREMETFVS
# [2] = molecular target: Mitogen-activated protein kinase 1 (Homo sapiens, UniProt P28482); experiment: DRUGMATRIX: Protein Serine/Threonine Kinase, ERK2 enzyme inhibition (substrate: Myelin Basic Protein); design: species or system Escherichia coli; details: Not Active = under 50% inhibition at 10 µM
# [3] = molecular target: T2, Vasoactive intestinal polypeptide receptor 1 (Homo sapiens, UniProt P32241); assay type: cell membranes, Membrane; details: ht-29; further: in other assays of this panel Not Active means under 50% inhibition at 10 µM
# T2 sequence (P32241 whole entry): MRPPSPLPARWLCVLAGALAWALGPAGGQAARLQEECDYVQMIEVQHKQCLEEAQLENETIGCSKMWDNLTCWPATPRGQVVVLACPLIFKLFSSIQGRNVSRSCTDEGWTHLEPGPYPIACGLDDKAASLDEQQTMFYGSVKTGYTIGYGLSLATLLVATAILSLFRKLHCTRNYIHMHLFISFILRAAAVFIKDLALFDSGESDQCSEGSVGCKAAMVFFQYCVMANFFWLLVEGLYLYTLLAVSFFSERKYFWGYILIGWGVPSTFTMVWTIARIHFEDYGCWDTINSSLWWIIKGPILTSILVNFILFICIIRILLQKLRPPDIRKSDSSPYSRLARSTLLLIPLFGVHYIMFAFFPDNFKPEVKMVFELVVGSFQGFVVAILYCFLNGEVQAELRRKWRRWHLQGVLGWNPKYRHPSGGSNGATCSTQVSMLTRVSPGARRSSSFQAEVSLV
# [4] = molecular target: T3, Cysteinyl leukotriene receptor 1 (Homo sapiens, UniProt Q9Y271); assay type: cell membranes, CHO-K1, Membrane; details: cho-k1; further: in other assays of this panel Not Active means under 50% inhibition at 10 µM
# T3 sequence (Q9Y271 whole entry): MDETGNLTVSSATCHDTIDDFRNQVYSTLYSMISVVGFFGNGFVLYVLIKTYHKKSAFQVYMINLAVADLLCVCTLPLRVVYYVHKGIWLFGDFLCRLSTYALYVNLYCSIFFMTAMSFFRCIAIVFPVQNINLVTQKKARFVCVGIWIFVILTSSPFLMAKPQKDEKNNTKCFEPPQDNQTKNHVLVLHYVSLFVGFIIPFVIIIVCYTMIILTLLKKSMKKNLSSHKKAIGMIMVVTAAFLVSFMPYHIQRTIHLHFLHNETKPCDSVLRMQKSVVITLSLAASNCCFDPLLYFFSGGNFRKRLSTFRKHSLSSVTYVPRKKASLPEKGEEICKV
# [5] = molecular target: Platelet-activating factor receptor (Homo sapiens, UniProt P25105); assay type: tissue-based; further: in other assays of this panel Not Active means under 50% inhibition at 10 µM
# [6] = molecular target: T4, Progesterone receptor (Bos taurus, UniProt Q690N0); experiment: DRUGMATRIX: Progesterone radioligand binding (ligand: [3H] R-5020); assay type: tissue-based, Uterus; details: Not Active = under 50% inhibition at 10 µM
# T4 sequence (Q690N0 whole entry): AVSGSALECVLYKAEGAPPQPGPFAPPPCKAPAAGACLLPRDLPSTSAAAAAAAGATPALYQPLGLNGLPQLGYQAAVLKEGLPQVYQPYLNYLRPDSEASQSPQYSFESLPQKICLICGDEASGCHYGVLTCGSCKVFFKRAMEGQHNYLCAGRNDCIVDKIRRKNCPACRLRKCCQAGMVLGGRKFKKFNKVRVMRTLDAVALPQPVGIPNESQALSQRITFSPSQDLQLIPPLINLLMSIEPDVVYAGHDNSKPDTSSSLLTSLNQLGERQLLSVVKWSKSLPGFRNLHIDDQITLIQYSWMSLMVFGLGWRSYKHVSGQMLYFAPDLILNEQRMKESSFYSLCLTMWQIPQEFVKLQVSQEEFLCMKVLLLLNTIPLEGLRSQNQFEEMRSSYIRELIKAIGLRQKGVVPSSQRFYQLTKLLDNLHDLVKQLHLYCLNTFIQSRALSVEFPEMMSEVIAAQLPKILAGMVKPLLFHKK
# [7] = molecular target: T5, 3-hydroxy-3-methylglutaryl-coenzyme A reductase (Homo sapiens, UniProt P04035); design: species or system Escherichia coli
# T5 sequence (P04035 whole entry): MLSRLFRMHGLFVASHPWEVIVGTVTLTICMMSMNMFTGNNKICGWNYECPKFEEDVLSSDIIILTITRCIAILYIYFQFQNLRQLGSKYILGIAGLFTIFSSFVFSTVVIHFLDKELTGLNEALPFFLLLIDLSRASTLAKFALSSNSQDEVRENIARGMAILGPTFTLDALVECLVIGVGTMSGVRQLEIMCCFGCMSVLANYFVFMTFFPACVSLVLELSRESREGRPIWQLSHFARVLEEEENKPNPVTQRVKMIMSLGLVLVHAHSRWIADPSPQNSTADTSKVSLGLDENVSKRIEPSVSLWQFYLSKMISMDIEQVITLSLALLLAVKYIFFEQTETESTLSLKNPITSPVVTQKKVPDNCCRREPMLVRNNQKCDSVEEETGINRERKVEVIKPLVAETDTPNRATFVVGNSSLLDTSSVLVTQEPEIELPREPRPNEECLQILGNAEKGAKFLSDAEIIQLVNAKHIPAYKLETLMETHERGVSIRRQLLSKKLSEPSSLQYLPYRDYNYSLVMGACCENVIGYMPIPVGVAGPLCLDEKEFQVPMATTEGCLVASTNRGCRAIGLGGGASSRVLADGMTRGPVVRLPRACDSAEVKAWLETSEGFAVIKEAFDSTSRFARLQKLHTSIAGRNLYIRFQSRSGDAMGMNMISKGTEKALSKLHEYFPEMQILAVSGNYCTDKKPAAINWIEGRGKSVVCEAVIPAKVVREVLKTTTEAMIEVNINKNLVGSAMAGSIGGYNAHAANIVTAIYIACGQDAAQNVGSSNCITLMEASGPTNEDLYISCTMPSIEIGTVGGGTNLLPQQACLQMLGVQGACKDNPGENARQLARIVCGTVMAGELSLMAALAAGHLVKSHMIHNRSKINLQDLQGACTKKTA
# Chain of Platelet-activating factor receptor (P25105 whole entry): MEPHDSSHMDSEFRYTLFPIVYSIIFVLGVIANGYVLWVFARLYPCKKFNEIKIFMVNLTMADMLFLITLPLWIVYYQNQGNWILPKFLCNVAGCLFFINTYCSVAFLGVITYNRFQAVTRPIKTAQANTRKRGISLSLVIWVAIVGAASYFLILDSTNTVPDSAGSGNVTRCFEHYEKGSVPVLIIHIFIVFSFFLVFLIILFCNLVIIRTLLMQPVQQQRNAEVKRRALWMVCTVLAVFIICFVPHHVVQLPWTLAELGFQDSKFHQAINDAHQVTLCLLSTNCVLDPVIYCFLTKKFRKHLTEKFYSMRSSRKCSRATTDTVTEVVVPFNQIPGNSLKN
# Chain of Mitogen-activated protein kinase 1 (P28482 whole entry): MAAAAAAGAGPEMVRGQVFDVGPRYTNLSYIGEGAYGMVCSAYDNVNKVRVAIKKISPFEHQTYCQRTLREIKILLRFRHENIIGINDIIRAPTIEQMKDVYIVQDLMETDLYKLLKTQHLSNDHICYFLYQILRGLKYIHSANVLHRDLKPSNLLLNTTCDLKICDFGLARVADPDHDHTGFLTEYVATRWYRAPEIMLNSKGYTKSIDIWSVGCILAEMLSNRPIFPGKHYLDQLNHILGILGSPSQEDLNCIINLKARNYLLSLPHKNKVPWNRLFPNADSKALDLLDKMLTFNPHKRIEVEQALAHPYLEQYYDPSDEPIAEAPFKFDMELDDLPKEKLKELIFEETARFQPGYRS
Structure (SMILES),IC50 [1],IC50 [2],IC50 [3],IC50 [4],IC50 [5],IC50 [6],IC50 [7],pIC50 ([6]; read-out: IC50),pKi ([6]; read-out: Ki),pIC50 ([2]; read-out: IC50)
C[C@H]1C[C@H]2[C@@H]3CCC4=CC(=O)C=C[C@]4(C)[C@@]3(F)[C@@H](O)C[C@]2(C)[C@@]1(O)C(=O)CO [BETAMETHASONE],Not Active,Not Active,Not Active,Not Active,Not Active,Not Active,Not Active,–,–,–
CC(C)NCC(O)COc1ccc(CC(N)=O)cc1 (stereo not given) [ATENOLOL],Not Active,Not Active,Not Active,Not Active,Not Active,Not Active,Not Active,–,–,–
O=C1c2ccccc2C(=O)C1c1ccccc1 [PHENINDIONE],Not Active,Not Active,Not Active,Not Active,Not Active,Not Active,Not Active,–,–,–
CCCCCCNC(=O)n1cc(F)c(=O)[nH]c1=O [CARMOFUR],Not Active,Not Active,Not Active,Not Active,Not Active,Not Active,Not Active,–,–,–
O=c1[nH]cnc2c1ncn2[C@H]1CC[C@@H](CO)O1 [DIDANOSINE],Not Active,Not Active,Not Active,Not Active,Not Active,Not Active,Not Active,–,–,–
CC(=O)Nc1ccc2c(c1)Cc1ccccc1-2 [2-ACETYLAMINOFLUORENE],Not Active,Not Active,Not Active,Not Active,Not Active,Not Active,Not Active,–,–,–
CC(C)(c1ccc(O)cc1)c1ccc(O)cc1 [BISPHENOL A],Not Active,Not Active,Not Active,Not Active,Not Active,Not Active,Not Active,–,–,–
CO[C@H]1O[C@@H]2O[C@@]3(C)CC[C@H]4[C@H](C)CC[C@@H]([C@H]1C)[C@@]24OO3,Not Active,Not Active,Not Active,Not Active,Not Active,Not Active,Not Active,–,–,–
C#C[C@]1(O)CC[C@H]2[C@@H]3CCC4=CC(=O)CC[C@@H]4[C@H]3CC[C@@]21C [NORETHINDRONE],Not Active,Not Active,Not Active,Not Active,Not Active,–,Not Active,8.03,8.91,–
CN(Cc1cc(Br)cc(Br)c1N)C1CCCCC1 [BROMHEXINE],Not Active,–,Not Active,Not Active,Not Active,Not Active,Not Active,–,–,–
CC12CCC(CC1=O)C2(C)C (stereo not given) [CAMPHOR],Not Active,Not Active,Not Active,Not Active,Not Active,Not Active,Not Active,–,–,–
C[C@@H]1[C@H](O)[C@@H](C)/C=C/C=C/C=C/C=C/C=C/C=C/C=C/[C@H](O[C@@H]2O[C@H](C)[C@@H](O)[C@H](N)[C@@H]2O)C[C@@H]2O[C@](O)(C[C@@H](O)C[C@@H](O)[C@H](O)CC[C@@H](O)C[C@@H](O)CC(=O)O[C@H]1C)C[C@H](O)[C@H]2C(=O)O [AMPHOTERICIN B],Not Active,–,Not Active,Not Active,Not Active,Not Active,Not Active,–,–,–
Nc1ccc(Cc2ccc(N)cc2)cc1,Not Active,Not Active,Not Active,Not Active,Not Active,Not Active,Not Active,–,–,–
CCN(CCO)CCCC(C)Nc1ccnc2cc(Cl)ccc12 (stereo not given) [HYDROXYCHLOROQUINE],Not Active,Not Active,Not Active,Not Active,Not Active,Not Active,Not Active,–,–,–
O=C(O)COC(=O)Cc1ccccc1Nc1c(Cl)cccc1Cl [ACECLOFENAC],Not Active,–,Not Active,Not Active,Not Active,Not Active,Not Active,–,–,5.23
O=C(O)CCc1nc(-c2ccccc2)c(-c2ccccc2)o1 [OXAPROZIN],Not Active,Not Active,Not Active,Not Active,Not Active,Not Active,Not Active,–,–,–
C=CCN1CC[C@]23c4c5ccc(O)c4O[C@H]2/C(=N/N=C2\CC[C@@]4(O)[C@H]6Cc7ccc(O)c8c7[C@@]4(CCN6CC=C)[C@H]2O8)CC[C@@]3(O)[C@H]1C5 [NALOXONAZINE],Not Active,Not Active,Not Active,Not Active,Not Active,Not Active,Not Active,–,–,–
O=C(O)CO [GLYCOLIC ACID],Not Active,Not Active,Not Active,Not Active,Not Active,Not Active,Not Active,–,–,–
COC(=O)Nc1nc2ccc(Sc3ccccc3)cc2[nH]1 [FENBENDAZOLE],Not Active,Not Active,Not Active,Not Active,Not Active,Not Active,Not Active,–,–,–
CC12CCC(CC1)C(C)(C)O2 [EUCALYPTOL],Not Active,Not Active,Not Active,Not Active,Not Active,Not Active,Not Active,–,–,–
Oc1ccccc1 [PHENOL],Not Active,Not Active,Not Active,Not Active,Not Active,–,Not Active,–,–,–
